Reference: patent publication US20170304359A1, “ORAL IODINE DOSAGE FORM” (priority 2016, published 2017)

How the values were obtained:
[1] = tested on: MCF7, MDA-MB231, MCF10A, and primary cells; assay type: cell-based, human
[2] = tested on: breast cancer and fibrocystic cell lines; assay: qRT-PCR gene expression analysis; assay type: cell-based, human; details: molecular iodine treatment
Protocol: An in vitro study was performed to assess the effect of molecular iodine in breast cancer and fibrocystic breast cell lines relative to the effects in human mammary epithelial cells (HMEC)(“primary cells”). The study measured gene expression for key markers in each of the cell lines following in vitro addition to the cells of cell media mixtures that comprised iodine species.
As mentioned in the previous paragraph, each of the four cell lines described in the previous paragraph was added to a sample of each of the six cell media mixtures CM1 to CM6. As an untreated control, one sample for each cell line was mixed with media only. Real-time reverse transcription polymerase chain reaction (qRT-PCR) was used to measure several key mRNA markers for apoptosis and cell growth in breast tissue for each combination of cell line and cell media mixture. The measured markers for cell growth were Cyclin D1, Cyclin E1, Cyclin B1, CDK2, and CDKN1B. The measured markers for apoptosis were BCL2 and Caspase 3. Cyclin D1 is required for progression through the G1 phase of the cell cycle. Cyclin E1 is required for cell cycle G1/S transition. Cyclin B1 is involved in the early events of mitosis, such as chromosome condensation, nuclear envelop breakdown, and spindle pole assembly. CDK2 is required for the transition from G1 to S phase and binding with Cyclin A is required to progress through the S phase. CDKN1B binds to and prevents the activation of cyclin E-CDK2 or Cyclin D-CDK4 complexes, and thus controls the cell cycle progression at G1. BCL2 plays an important role in promoting cellular survival and inhibiting the actions of pro-apoptotic proteins. Caspase 3 plays a central role in the execution phase of cell apoptosis. […] Table 4 presents the data normalized to the corresponding data for the primary cells when added to CM6.
BCL-2, an inhibitor of cell death, was increased, while expression of caspase-3 was decreased.

[3] = tested on: fibrocystic breast condition; details: about 3 to about 12 mg of molecular iodine per day; clinical trials (Kessler 2004; Ghent 1993); cited from earlier work
[4] = Aceves et al. 2013; cited from earlier work
[5] = Aceves et al. 2013; cited from earlier work; remark: listed apart in the source

II [molecular iodine]
susceptibility of breast cancer cell lines compared to primary cells (cell death) ([1]; 24 hours, FIG. 3): more susceptible
effects on cell growth in both breast cancer and FBC [2]: potent inhibitory effects
BCL-2 expression ([2]; quantitative RT-PCR): increased
Cyclin B expression levels ([2]; quantitative RT-PCR): No significant changes
expression of caspase-3 ([2]; quantitative RT-PCR): decreased
expression of cell cycle genes controlling G1-S phase transition ([2]; quantitative RT-PCR): largely up-regulated
expression of nuclear hormone receptor PPAR-α ([2]; quantitative RT-PCR): up-regulated
expression of nuclear hormone receptor PPAR-γ ([2]; quantitative RT-PCR): up-regulated
treatment of fibrocystic breast condition [3]: effective
difference in uptake in the thyroid between molecular iodine and iodide [4]: 3-4 fold
uptake difference between molecular iodine and iodide in the breast [5]: small uptake difference

[I-].[K+] [CM3, potassium iodide, reference compound]
selectivity for apoptosis and cell proliferation between cancerous or fibrocystic cells and healthy human mammary epithelial cells [1]: not present
